Measurements reported in PubChem BioAssay AID1963971 (Molecular Pharmacology Branch, DTP, NCI, 2024).

Tested on: 953936-095-R-J2-PDC spheroids with HUVEC/MSC, viability
Assay: Anticancer human tumor 953936-095-R-J2-PDC patient-derived cervical squamous cell carcinoma cell line growth inhibition [PI3K]
Settings: for IC50: curve of first compound; for viability, T/C: stronger effect = lower value; active means viability on the fitted dose curve at most 10% of control; inactive means the rest
Method in brief: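 Spheroid viability read-out. Co-cultures contained the tumor line plus HUVEC and human MSCs. Each agent was paired with a PI3K inhibitor (inavolisib, alpelisib, duvelisib, copanlisib) across half-log dilutions starting at clinical Cmax, or at 10 microM when Cmax was unknown.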

[1] = second compound 0.0316 µM, first compound 0.0316 µM
[2] = second compound 0.0316 µM, first compound 0.1 µM
[3] = second compound 0.0316 µM, first compound 0.316 µM
[4] = second compound 0.0316 µM, first compound 1 µM
[5] = second compound 0.0316 µM, first compound 3.16 µM
[6] = second compound 0.0316 µM, first compound 10 µM
[7] = second compound 0.1 µM, first compound 0.0316 µM
[8] = second compound 0.1 µM, first compound 0.1 µM
[9] = second compound 0.1 µM, first compound 0.316 µM
[10] = second compound 0.1 µM, first compound 1 µM
[11] = second compound 0.1 µM, first compound 3.16 µM
[12] = second compound 0.1 µM, first compound 10 µM
[13] = second compound 0.316 µM, first compound 0.0316 µM
[14] = second compound 0.316 µM, first compound 0.1 µM
[15] = second compound 0.316 µM, first compound 0.316 µM
[16] = second compound 0.316 µM, first compound 1 µM
[17] = second compound 0.316 µM, first compound 3.16 µM
[18] = second compound 0.316 µM, first compound 10 µM
[19] = second compound 1 µM, first compound 0.0316 µM
[20] = second compound 1 µM, first compound 0.1 µM
[21] = second compound 1 µM, first compound 0.316 µM
[22] = second compound 1 µM, first compound 1 µM
[23] = second compound 1 µM, first compound 3.16 µM
[24] = second compound 1 µM, first compound 10 µM
[25] = second compound 3.16 µM, first compound 0.0316 µM
[26] = second compound 3.16 µM, first compound 0.1 µM
[27] = second compound 3.16 µM, first compound 0.316 µM
[28] = second compound 3.16 µM, first compound 1 µM
[29] = second compound 3.16 µM, first compound 3.16 µM
[30] = second compound 3.16 µM, first compound 10 µM
[31] = second compound 10 µM, first compound 0.0316 µM
[32] = second compound 10 µM, first compound 0.1 µM
[33] = second compound 10 µM, first compound 0.316 µM
[34] = second compound 10 µM, first compound 1 µM
[35] = second compound 10 µM, first compound 3.16 µM
[36] = second compound 10 µM, first compound 10 µM
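Further: spheroids exposed to compounds for seven days before read-out.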

CC1(C)CCC(CN2CCN(c3ccc(C(=O)NS(=O)(=O)c4ccc(NCC5CCOCC5)c([N+](=O)[O-])c4)c(Oc4cnc5[nH]ccc5c4)c3)CC2)=C(c2ccc(Cl)cc2)C1 + CC(Nc1ncnc2nc[nH]c12)c1cc2cccc(Cl)c2c(=O)n1-c1ccccc1
inactive: viability, T/C [1] 84.4% | viability, T/C [2] 102% | viability, T/C [3] 101% | viability, T/C [4] 90.2% | viability, T/C [5] 94.7% | viability, T/C [6] 34.3% | viability, T/C [7] 93.8% | viability, T/C [8] 104% | viability, T/C [9] 112% | viability, T/C [10] 98% | viability, T/C [11] 78.8% | viability, T/C [12] 31% | viability, T/C [13] 101% | viability, T/C [14] 93.9% | viability, T/C [15] 104% | viability, T/C [16] 96.3% | viability, T/C [17] 90.5% | viability, T/C [18] 35.8% | viability, T/C [19] 106% | viability, T/C [20] 97.1% | viability, T/C [21] 82.5% | viability, T/C [22] 88.7% | viability, T/C [23] 88.8% | viability, T/C [24] 34.4% | viability, T/C [25] 80.4% | viability, T/C [26] 79.4% | viability, T/C [27] 80.6% | viability, T/C [28] 80.5% | viability, T/C [29] 67.7% | viability, T/C [30] 39.2% | viability, T/C [31] 57.5% | viability, T/C [32] 70.3% | viability, T/C [33] 59.6% | viability, T/C [34] 60.8% | viability, T/C [35] 62% | viability, T/C [36] 31.1%
6.33 µM: IC50 (second compound 0.1 µM)
7.41 µM: IC50 (second compound 0.0316 µM)
7.43 µM: IC50 (second compound 0.316 µM)
7.16 µM: IC50 (second compound 1 µM)
6.61 µM: IC50 (second compound 3.16 µM)
4.9 µM: IC50 (second compound 10 µM)

CCCS(=O)(=O)Nc1ccc(F)c(C(=O)c2c[nH]c3ncc(-c4ccc(Cl)cc4)cc23)c1F + CC(Nc1ncnc2nc[nH]c12)c1cc2cccc(Cl)c2c(=O)n1-c1ccccc1
5.73 µM: IC50 (second compound 0.1 µM)
4.07 µM: IC50 (second compound 10 µM)
5.74 µM: IC50 (second compound 0.0316 µM)
inactive: viability, T/C [1] 91.3% | viability, T/C [2] 98.6% | viability, T/C [3] 108% | viability, T/C [4] 113% | viability, T/C [5] 103% | viability, T/C [7] 102% | viability, T/C [8] 101% | viability, T/C [9] 99.2% | viability, T/C [10] 104% | viability, T/C [11] 104% | viability, T/C [13] 101% | viability, T/C [14] 91.6% | viability, T/C [15] 97% | viability, T/C [16] 102% | viability, T/C [17] 97.2% | viability, T/C [19] 98.9% | viability, T/C [20] 85.1% | viability, T/C [21] 96.5% | viability, T/C [22] 98.2% | viability, T/C [23] 89.3% | viability, T/C [25] 76.1% | viability, T/C [26] 74.6% | viability, T/C [27] 78% | viability, T/C [28] 101% | viability, T/C [29] 86.9% | viability, T/C [31] 59.5% | viability, T/C [32] 63.5% | viability, T/C [33] 63% | viability, T/C [34] 70.1% | viability, T/C [35] 63.6%
5.56 µM: IC50 (second compound 0.316 µM)
active: viability, T/C [6] 0.75% | viability, T/C [12] 1.22% | viability, T/C [18] 0.93% | viability, T/C [24] 1.11% | viability, T/C [30] 1.48% | viability, T/C [36] 1.27%
5.28 µM: IC50 (second compound 1 µM)
5.05 µM: IC50 (second compound 3.16 µM)

C[C@@H](NC(=O)c1ncnc(N)c1Cl)c1ncc(C(=O)Nc2cc(C(F)(F)F)c(Cl)cn2)s1 + CC(Nc1ncnc2nc[nH]c12)c1cc2cccc(Cl)c2c(=O)n1-c1ccccc1
> 10 µM: IC50 (second compound 0.0316 µM) | IC50 (second compound 0.1 µM) | IC50 (second compound 0.316 µM) | IC50 (second compound 1 µM) | IC50 (second compound 3.16 µM) | IC50 (second compound 10 µM)
inactive: viability, T/C [1] 103% | viability, T/C [2] 98.3% | viability, T/C [3] 101% | viability, T/C [4] 108% | viability, T/C [5] 101% | viability, T/C [6] 97.2% | viability, T/C [7] 113% | viability, T/C [8] 106% | viability, T/C [9] 106% | viability, T/C [10] 101% | viability, T/C [11] 117% | viability, T/C [12] 96.4% | viability, T/C [13] 107% | viability, T/C [14] 101% | viability, T/C [15] 94.3% | viability, T/C [16] 95.4% | viability, T/C [17] 103% | viability, T/C [18] 94.6% | viability, T/C [19] 96.5% | viability, T/C [20] 91.3% | viability, T/C [21] 91.8% | viability, T/C [22] 102% | viability, T/C [23] 94.8% | viability, T/C [24] 86.2% | viability, T/C [25] 87.2% | viability, T/C [26] 79.5% | viability, T/C [27] 86.1% | viability, T/C [28] 94% | viability, T/C [29] 80.1% | viability, T/C [30] 79.8% | viability, T/C [31] 60.9% | viability, T/C [32] 76.9% | viability, T/C [33] 63.1% | viability, T/C [34] 80.7% | viability, T/C [35] 61.7% | viability, T/C [36] 55.1%
